Test [1] concerns MRSA (Los Angeles County clone (LAC)). The test is described as follows: microbe, parasite or virus in culture. In kind it is cell-based, methicillin-resistant Staphylococcus aureus. Conditions: for MIC MRSA (LAC): Los Angeles County clone (LAC). As for the experimental part:
(§1) To evaluate the antibacterial activity of all the synthesized peptides, the minimum inhibitory concentration (MIC) was determined using the micro broth dilution method (Table 1), as per the Clinical Laboratory Standards Institute (CLSI). The MIC is a quantitative measurement of the minimum concentration of a compound required to inhibit visible bacterial growth. MIC values for all 20 peptides were measured against E. coli (ATCC 25922) and MRSA (Los Angeles County clone (LAC)) (Table 1). These two bacterial strains represent Gram-negative and Gram-positive pathogens. MRSA is one of the most challenging Gram-positive bacteria that leads to a life-threatening infection, while E. coli is a Gram-negative bacteria that has the ability to use gene mutations and multidrug efflux pumps that can result in multidrug resistance.
(§2) Two bacterial strains, methicillin-resistant Staphylococcus aureus (LAC) and Escherichia coli (ATCC 25922) were used for the evaluation of the antibacterial activities of the peptides. […] MRSA and E. coli were inoculated into Mueller Hinton (MH) broth (5 mL) at 37 °C. After shaking in an orbital shaker (175 rpm) overnight, the cultured suspension was diluted using normal saline (5 mL). […] An amount of 40 μL of the McFarland solution was then added to 5980 μL of MH media to afford 1/150 dilution. […] Minimal inhibitory concentrations (MIC) values were obtained using the broth micro dilution assay. In brief, first, the peptides and controls (200 μL) were added to the first column of the 96 well plate. Second, 2-fold serial dilutions of the compound were accomplished by adding media (100 μL) to other wells. After the serial dilution, the bacterial solution (100 μL) was added to all the wells. Finally, the microtiter plates were incubated statically at 37 °C overnight. MIC values were obtained by observing the minimal concentration at which bacterial growth was not visible. All the determinations were carried out in triplicate.

In another test the test system is E. coli (ATCC 25922). Kind of test: microbe, parasite or virus in culture. Format: cell-based, Escherichia coli. The settings on record: ATCC 25922. The procedure:
as §1, §2

The next test has as its system MRSA (ATCC 43300). Conditions: cited from earlier work. The source says: Synthesis of AMPs by modifying the structures of amino acids is relatively easy. Change in the structure of natural and synthetic AMPs can be used to develop new active compounds with optimal activity and stability. Developing small-sized linear or cyclic peptides for AMP application is more accessible than the complex AMPs isolated from natural products containing disulfide bonds. The cyclic peptides are polypeptides chains containing a cyclic structure synthesized by linking the carboxylic acid and amino groups in the peptide.

In brackets after ≈: the same amount, converted by molar mass. Where a SMILES comes first, the peptide text is derived from it. [ ]: non-standard residue; d: D form. Trp(1-Me) = Cn1cc(C[C@H](N)C(=O)O)c2ccccc21 Some results are limits rather than exact numbers.

In the case of `CC(C)C[C@@H]1NC(=O)[C@H](CCCNC(=N)N)NC(=O)[C@H](CCCNC(=N)N)NC(=O)[C@H](CCCNC(=N)N)NC(=O)[C@H](CCCNC(=N)N)NC(=O)[C@H](CC(C)C)NC(=O)[C@H](CC(C)C)NC(=O)[C@H](CC(C)C)NC1=O` [[L4R4] (12)] (cyclo(LLLLRRRR)), in test [1], the “MIC MRSA (LAC)” value is over 128 µg/mL. The “MIC E. coli (ATCC 25922)” value against E. coli (ATCC 25922) is over 128 µg/mL.

As to `N=C(N)NCCC[C@@H]1NC(=O)[C@H](CCCNC(=N)N)NC(=O)[C@H](CCCNC(=N)N)NC(=O)[C@H](Cc2c[nH]c3ccccc23)NC(=O)[C@H](Cc2c[nH]c3ccccc23)NC(=O)[C@H](Cc2c[nH]c3ccccc23)NC(=O)[C@H](Cc2c[nH]c3ccccc23)NC(=O)[C@H](CCCNC(=N)N)NC1=O` [[R4W4] (7)] (cyclo(RRRRWWWW)), the “MIC MRSA (LAC)” value in test [1] came to 4 µg/mL (≈ 2.92 µM). Moreover, the “MIC against MRSA as printed in the cytotoxicity section” value in test [1] (text of section 2.3) worked out at 4 µM (≈ 5.48 µg/mL). In the test with E. coli (ATCC 25922), the “MIC E. coli (ATCC 25922)” value worked out at 16 µg/mL (≈ 11.7 µM). Also, in the test on MRSA (ATCC 43300), the “MIC against MRSA (ATCC 43300)” value is 2.67 µg/mL (≈ 1.95 µM).

Turning to `N=C(N)NCCC[C@@H]1NC(=O)[C@H](CCCNC(=N)N)NC(=O)[C@H](CCCNC(=N)N)NC(=O)[C@H](CCCNC(=N)N)NC(=O)[C@H](Cc2c[nH]c3ccccc23)NC(=O)[C@H](Cc2c[nH]c3ccccc23)NC(=O)[C@H](Cc2c[nH]c3ccccc23)NC(=O)[C@H](Cc2c[nH]c3ccccc23)NC(=O)[C@H](Cc2c[nH]c3ccccc23)NC(=O)[C@H](CCCNC(=N)N)NC(=O)[C@H](CCCNC(=N)N)NC(=O)[C@H](CCCNC(=N)N)NC1=O` [[R7W5] (17)] (cyclo(RRRRRRRWWWWW)), the “MIC MRSA (LAC)” value in test [1] was 32 µg/mL (≈ 15.8 µM). In addition, in the test on E. coli (ATCC 25922), the “MIC E. coli (ATCC 25922)” value came out at 64 µg/mL (≈ 31.6 µM).

Turning to `N=C(N)NCCC[C@@H]1NC(=O)[C@H](CCCNC(=N)N)NC(=O)[C@H](CCCNC(=N)N)NC(=O)[C@H](CCCNC(=N)N)NC(=O)[C@H](Cc2c[nH]c3ccccc23)NC(=O)[C@H](Cc2c[nH]c3ccccc23)NC(=O)[C@H](Cc2c[nH]c3ccccc23)NC(=O)[C@H](Cc2c[nH]c3ccccc23)NC(=O)[C@H](Cc2c[nH]c3ccccc23)NC(=O)[C@H](Cc2c[nH]c3ccccc23)NC(=O)[C@H](CCCNC(=N)N)NC(=O)[C@H](CCCNC(=N)N)NC(=O)[C@H](CCCNC(=N)N)NC1=O` [[R7W6] (19)] (cyclo(RRRRRRRWWWWWW)), the “MIC MRSA (LAC)” value in test [1] came to 16 µg/mL (≈ 7.24 µM). Moreover, the “MIC E. coli (ATCC 25922)” value against E. coli (ATCC 25922) is 64 µg/mL (≈ 29 µM).

Turning to `N=C(N)NCCC[C@@H]1NC(=O)[C@H](CCCNC(=N)N)NC(=O)[C@H](CCCNC(=N)N)NC(=O)[C@H](CCCNC(=N)N)NC(=O)[C@H](Cc2c[nH]c3ccccc23)NC(=O)[C@H](Cc2c[nH]c3ccccc23)NC(=O)[C@H](Cc2c[nH]c3ccccc23)NC(=O)[C@H](Cc2c[nH]c3ccccc23)NC(=O)[C@H](Cc2c[nH]c3ccccc23)NC(=O)[C@H](Cc2c[nH]c3ccccc23)NC(=O)[C@H](Cc2c[nH]c3ccccc23)NC(=O)[C@H](CCCNC(=N)N)NC(=O)[C@H](CCCNC(=N)N)NC(=O)[C@H](CCCNC(=N)N)NC1=O` [[R7W7] (20)] (cyclo(RRRRRRRWWWWWWW)), the “MIC MRSA (LAC)” value in test [1] came to 8 µg/mL (≈ 3.34 µM). Also, in the test with E. coli (ATCC 25922), the “MIC E. coli (ATCC 25922)” value was found to be 32 µg/mL (≈ 13.4 µM).

For the molecule `Cn1cc(C[C@@H]2NC(=O)[C@H](CCCNC(=N)N)NC(=O)[C@H](CCCNC(=N)N)NC(=O)[C@H](CCCNC(=N)N)NC(=O)[C@H](CCCNC(=N)N)NC(=O)[C@H](Cc3cn(C)c4ccccc34)NC(=O)[C@H](Cc3cn(C)c4ccccc34)NC(=O)[C@H](Cc3cn(C)c4ccccc34)NC2=O)c2ccccc21` [[W(Me)4R4] (13)] (cyclo([Trp(1-Me)][Trp(1-Me)][Trp(1-Me)][Trp(1-Me)]RRRR)), in test [1], the “MIC MRSA (LAC)” value came out at 8 µg/mL (≈ 5.61 µM). Moreover, in the test on E. coli (ATCC 25922), the “MIC E. coli (ATCC 25922)” value was determined as 16 µg/mL (≈ 11.2 µM).

For the molecule `N=C(N)NCCC[C@@H]1NC(=O)[C@H](CCCNC(=N)N)NC(=O)[C@H](CCCNC(=N)N)NC(=O)[C@H](Cc2ccc(O)cc2)NC(=O)[C@H](Cc2ccc(O)cc2)NC(=O)[C@H](Cc2ccc(O)cc2)NC(=O)[C@H](Cc2ccc(O)cc2)NC(=O)[C@H](CCCNC(=N)N)NC1=O` [[Y4R4] (8)] (cyclo(YYYYRRRR)), the “MIC MRSA (LAC)” value in test [1] is over 128 µg/mL. The “MIC E. coli (ATCC 25922)” value in the test on E. coli (ATCC 25922) is over 128 µg/mL.

As to H-AAAARRRR-OH [A4R4 (2)], the “MIC MRSA (LAC)” value in test [1] is over 128 µg/mL. Also, the “MIC E. coli (ATCC 25922)” value in the test on E. coli (ATCC 25922) was over 128 µg/mL.

For the molecule H-FFFFRRRR-OH [F4R4 (3)], the “MIC MRSA (LAC)” value in test [1] was over 128 µg/mL. The “MIC E. coli (ATCC 25922)” value in the test on E. coli (ATCC 25922) is over 128 µg/mL.

Regarding H-IIIIRRRR-OH [I4R4 (5)], in test [1], the “MIC MRSA (LAC)” value is over 128 µg/mL. The “MIC E. coli (ATCC 25922)” value against E. coli (ATCC 25922) was over 128 µg/mL.

On to H-LLLLRRRR-OH [L4R4 (4)], for which the “MIC MRSA (LAC)” value in test [1] is over 128 µg/mL. Besides, in the test on E. coli (ATCC 25922), the “MIC E. coli (ATCC 25922)” value was over 128 µg/mL.

On to H-RRRRWWWW-OH [R4W4 (1)], for which, in test [1], the “MIC MRSA (LAC)” value is 32 µg/mL. Further, the “MIC E. coli (ATCC 25922)” value with E. coli (ATCC 25922) is 64 µg/mL.

On to H-YYYYRRRR-OH [Y4R4 (6)], for which the “MIC MRSA (LAC)” value in test [1] is over 128 µg/mL. Further, in the test with E. coli (ATCC 25922), the “MIC E. coli (ATCC 25922)” value was over 128 µg/mL.

Source of the values: PMC6222377, “Design, Synthesis, and Evaluation of Amphiphilic Cyclic and Linear Peptides Composed of Hydrophobic and Positively-Charged Amino Acids as Antibacterial Agents” (Molecules : A Journal of Synthetic Chemistry and Natural …, 2018).
